Consider two compounds from patent publication EP1206476B1, “9A-AZALIDES WITH ANTIBACTERIAL ACTIVITY” (ABBOTT LABORATORIES, priority 1999, dated 2001).

Common to all, as to experiment: In vitro assay of antibacterial activity (agar dilution MIC)
Assay type in all cases: cell-based

Assay [1] concerns Nocardia Asteroides ATCC 99700. The conditions noted are these: code VV = Nocardia Asteroides ATCC 99700; BHI agar, 35-37 °C, 20 to 24 hours; unit assumed. On the procedure: (§1) Representative compounds of the present invention were assayed in vitro for antibacterial activity as follows: Twelve petri dishes containing successive aqueous dilutions of the test compound mixed with 10 mL of sterilized Brain Heart Infusion (BHI) agar (Difco 0418-01-5) were prepared. Each plate was inoculated with 1:100 (or 1:10 for slow-growing strains, such as Micrococcus and Streptococcus) dilutions of up to 32 different microorganisms, using a Steers replicator block. The inoculated plates were incubated at 35-37 °C for 20 to 24 hours. In addition, a control plate, using BHI agar containing no test compound, was prepared and incubated at the beginning and end of each test.
(§2) An additional plate containing a compound having known susceptibility patterns for the organisms being tested and belonging to the same antibiotic class as the test compound was also prepared and incubated as a further control, as well as to provide test-to-test comparability. Erythromycin A was used for this purpose.
(§3) After incubation, each plate was visually inspected. The minimum inhibitory concentration (MIC) was defined as the lowest concentration of drug yielding no growth, a slight haze, or sparsely isolated colonies on the inoculum spot as compared to the growth control.

The test system of assay [2] is Staphylococcus aureus A-5278. The conditions noted are these: code CC = Staphylococcus aureus A-5278; BHI agar, 35-37 °C, 20 to 24 hours; unit assumed. How it is done:
as §1, §2, §3

Assay [3] concerns Streptococcus pyogenes EES61. The conditions noted are these: code LL = Streptococcus pyogenes EES61; BHI agar, 35-37 °C, 20 to 24 hours; unit assumed. On the procedure: as §1, §2, §3
Assay [4] has as its system Mycobacterium smegmatis ATCC 114. The conditions noted are these: code UU = Mycobacterium smegmatis ATCC 114; BHI agar, 35-37 °C, 20 to 24 hours; unit assumed. How it is done: as §1, §2, §3
Assay [5] relates to Candida albicans CCH 442. The conditions noted are these: code TT = Candida albicans CCH 442; BHI agar, 35-37 °C, 20 to 24 hours; unit assumed. On the procedure: as §1, §2, §3
Assay [6] concerns Staphylococcus epidermidis 3519. The conditions noted are these: code HH = Staphylococcus epidermidis 3519; BHI agar, 35-37 °C, 20 to 24 hours; unit assumed. How it is done: as §1, §2, §3
For assay [7], the system named is Staphylococcus aureus A-5177. The conditions noted are these: code BB = Staphylococcus aureus A-5177; BHI agar, 35-37 °C, 20 to 24 hours; unit assumed. On the procedure: as §1, §2, §3
In assay [8] the test system is Streptococcus Pneumonia GYR 1171. The conditions noted are these: code YY = Streptococcus Pneumonia GYR 1171; BHI agar, 35-37 °C, 20 to 24 hours; unit assumed. On the procedure:
as §1, §2, §3

In assay [9] the test system is Streptococcus Pneumonia ATCC 6303. The conditions noted are these: code XX = Streptococcus Pneumonia ATCC 6303; BHI agar, 35-37 °C, 20 to 24 hours; unit assumed. On the procedure: as §1, §2, §3
The test system of assay [10] is Staphylococcus aureus ATCC 6538P. The conditions noted are these: code AA = Staphylococcus aureus ATCC 6538P; BHI agar, 35-37 °C, 20 to 24 hours; unit assumed. On the procedure: as §1, §2, §3
In assay [11] the test system is Staphylococcus aureus NCTC 10649M. The conditions noted are these: code EE = Staphylococcus aureus NCTC 10649M; BHI agar, 35-37 °C, 20 to 24 hours; unit assumed. How it is done:
as §1, §2, §3

Assay [12] has as its system Micrococcusluteus ATCC 4698. The conditions noted are these: code PP = Micrococcusluteus ATCC 4698; BHI agar, 35-37 °C, 20 to 24 hours; unit assumed. How it is done: as §1, §2, §3
The subject of assay [13] is Streptococcus agalactiae CMX 508. The conditions noted are these: code KK = Streptococcus agalactiae CMX 508; BHI agar, 35-37 °C, 20 to 24 hours; unit assumed. On the procedure: as §1, §2, §3
Assay [14] has as its system Streptococcus Pneumonia 5649. The conditions noted are these: code ZA = Streptococcus Pneumonia 5649; BHI agar, 35-37 °C, 20 to 24 hours; unit assumed. How it is done: as §1, §2, §3
The subject of assay [15] is Escherichiacoli SS. The conditions noted are these: code RR = Escherichiacoli SS; BHI agar, 35-37 °C, 20 to 24 hours; unit assumed. How it is done:
as §1, §2, §3

Assay [16] concerns Streptococcus bovis A-5169. The conditions noted are these: code JJ = Streptococcus bovis A-5169; BHI agar, 35-37 °C, 20 to 24 hours; unit assumed. How it is done:
as §1, §2, §3

Assay [17] deals with Streptococcus pyogenes 930. The conditions noted are these: code MM = Streptococcus pyogenes 930; BHI agar, 35-37 °C, 20 to 24 hours; unit assumed. How it is done:
as §1, §2, §3

For assay [18], the system named is Escherichiacoli JUHL. The conditions noted are these: code QQ = Escherichiacoli JUHL; BHI agar, 35-37 °C, 20 to 24 hours; unit assumed. How it is done:
as §1, §2, §3

Assay [19] has as its system Staphylococcus aureus 1775. The conditions noted are these: code GG = Staphylococcus aureus 1775; BHI agar, 35-37 °C, 20 to 24 hours; unit assumed. On the procedure: as §1, §2, §3
Assay [20] relates to Streptococcus pyogenes PIU 2548. The conditions noted are these: code NN = Streptococcus pyogenes PIU 2548; BHI agar, 35-37 °C, 20 to 24 hours; unit assumed. How it is done: as §1, §2, §3
In assay [21] the test system is Haemophilislnfluenzae DILL AMP R. The conditions noted are these: code WW = Haemophilislnfluenzae DILL AMP R; BHI agar, 35-37 °C, 20 to 24 hours; unit assumed. On the procedure:
as §1, §2, §3

Assay [22] relates to Streptococcus Pneumonia 5979. The conditions noted are these: code ZZ = Streptococcus Pneumonia 5979; BHI agar, 35-37 °C, 20 to 24 hours; unit assumed. On the procedure:
as §1
An additional plate containing a compound having known susceptibility patterns for the organisms being tested and belonging to the same antibiotic class as the test compound was also prepared and incubated as a further control, as well as to provide test-to-test comparability.
as §3

Turning to `CC[C@H]1OC(=O)[C@H](C)[C@@H](O[C@H]2C[C@@](C)(OC)[C@@H](O)[C@H](C)O2)[C@H](C)[C@@H](O[C@@H]2O[C@H](C)C[C@H](N(C)C)[C@H]2O)[C@](C)(O)C[C@@H](C)C(=O)[C@H](C)[C@@H](O)[C@]1(C)O` [Ery. A standard, Erythromycin A, reference compound], the Antibacterial Activity (MIC's) was 0.1 µg/mL in assay [1]; over 100 µg/mL in [2]; 0.05 µg/mL in assay [3]; 3.1 µg/mL in [4]; over 100 µg/mL in [5]; 0.39 µg/mL in [6]. Moreover, the Antibacterial Activity (MIC's) in assay [7] amounted to 3.1 µg/mL; in [8], 0.06 µg/mL; in [9] it was 0.06 µg/mL; in assay [10], 0.2 µg/mL; in [11], 0.39 µg/mL; in assay [12], 0.2 µg/mL. Also, the Antibacterial Activity (MIC's) was 0.05 µg/mL in assay [13]; 16 µg/mL in [14]; 0.78 µg/mL in [15]; 0.02 µg/mL in assay [16]; over 100 µg/mL in assay [17]; over 100 µg/mL in [18]. In addition, the Antibacterial Activity (MIC's) in assay [19] was over 100 µg/mL; in assay [20], 6.2 µg/mL; in assay [21], 4 µg/mL.
In the case of `C=CCO[C@]1(C)C[C@@H](C)CN[C@H](C)[C@@H](O)[C@](C)(O)[C@@H](CC)OC(=O)[C@H](C)[C@@H](O[C@H]2C[C@@](C)(OC)[C@@H](O)[C@H](C)O2)[C@H](C)[C@H]1O[C@@H]1O[C@H](C)C[C@H](N(C)C)[C@H]1O` [Example 2], the Antibacterial Activity (MIC's) in [22] was over 128 µg/mL; in assay [1] it was 0.1 µg/mL; in assay [2], over 100 µg/mL; in assay [3] it was 0.05 µg/mL; in [4], 6.2 µg/mL; in assay [5], over 100 µg/mL. Also, the Antibacterial Activity (MIC's) in assay [6] is 0.2 µg/mL; in [7], 12.5 µg/mL; in [8], 0.06 µg/mL; in assay [9] it was 0.06 µg/mL; in assay [10] it was 0.2 µg/mL; in [11], 0.39 µg/mL. The Antibacterial Activity (MIC's) was 0.39 µg/mL in assay [12]; 0.05 µg/mL in assay [13]; 16 µg/mL in assay [14]; 0.78 µg/mL in assay [15]; 0.02 µg/mL in [16]; over 100 µg/mL in [17]. Moreover, the Antibacterial Activity (MIC's) in assay [18] was 50 µg/mL; in assay [19] it was over 100 µg/mL; in assay [20], 6.2 µg/mL; in assay [21] it was 8 µg/mL.
